This passage reports solubility results from patent US20240261261A1, “NEW FORMULATION FOR INJECTION COMPRISING 1-(5-(2,4-DIFLUOROPHENYL)-1-((3-FLUOROPHENYL)SULFONYL)-4-METHOXY-1H-PYRROL-3-YL)-N-METHYLMETHANAMINE” (DAEWOONG PHARMACEUTICAL CO., LTD., priority 2021, published 2024).

A word on the solubility: it is the concentration that dissolves in the medium under given conditions. Low readings indicate a poorly soluble substance, high ones a readily soluble substance.

The nature of the series: Water solubility. The class given is physicochemical. As to conditions: aqueous buffer, pH 6.8, the substance or its hydrochloride.

Take `CNCc1cn(S(=O)(=O)c2cccc(F)c2)c(-c2ccc(F)cc2F)c1OC` [Chemical Formula 1, 1-(5-(2,4-difluorophenyl)-1-((3-fluorophenyl)sulfonyl)-4-methoxy-1H-pyrrol-3-yl)-N-methylmethanamine]: the solubility came out at 2170 µg/mL.
